From patent US8586719B2, “Triterpenes for modulating gene expression and cell membrane, and as antiprotozoal agents” (Pacific Arrow Limited, priority 2005, dated 2013)
≈ marks a conversion by molar mass, not a printed value. Where two headings read alike, the source gives them in different places.

Experiments:
[1] = test system: Leishmania Major (promastigotes); assay: Cell growth of Leishmania parasites by MTT assay; type: cell-based; conditions: for IC50: Leishmania major, read-out: IC50, cytotoxic to Leishmania Major (promastigotes)
Protocol: Method: Leishmania parasites (Leishmania major: MRHO/SU/59/P/LV39) were grown in culture medium in a T75 flask at room temperature. Promastigotes of Leishmania major (approximately 40 million per ml) were used in the experiment. 1.2 ml cell culture was transferred to a well of the 24-wells plate. Saponin Y10 (0.2 ml in medium) with different concentrations (final 6.25-200 ug/ml) was added to culture and cells were grown for 1-5 days at room temperature. At the end of drug-treatment, 150 ul of MTT (5 mg/ml in PBS) was added to each well and incubated for 4 hours. Formazan formed in cells was dissolved with DMSO and the OD at 490 nm was determined by an ELISA reader.

[2] = test system: Fibronectin; assay: Fibronectin secretion from ES2 cells; type: cell-based, human
Protocol: (§1) Reduction of Fibronectin secretion from ES2 cells after xanifolia-Y treatment. • (Results of F1, F3, F4, F5, F7, F8, F11, F12A, F15, F16, F17) Data in PCT/US2008/002086, 1188-ALA-PCT, filed Feb. 15, 2008 are incorporated herein by reference • (F11) For lung carcinoma cells (H460), at concentration of 20 ug/ml, there are inhibitions of Fibronectin secretion ranged from 20-60%. • (F12A) For bladder carcinoma cells (HTB-9), Xanifolia-Y (10 ug/ml) inhibits 50% of Fibronectin secretion. • (F15) In liver HepG2 cells. 10 ug/ml of xanifolia-Y inhibits 42% secretion of Fibronectin. • (F16) Incubation of brain glioblastoma T98G cells with 10 ug/ml of xanifolia-Y inhibits 27% Fibronectin secretion and with 20 ug/ml Y inhibits 74% Fibronectin secretion. • (F17) For skin SK-MeI-5 cells, the inhibition is 40-57% with 20 ug/ml of Xanifolia-Y.

[3] = test system: Fibronectin; assay: Fibronectin secretion, brain glioblastoma T98G cells; type: cell-based, human; conditions: Brain T98G; 10 ug/ml (table: label suffix -10)
Protocol: as §1

[4] = test system: Fibronectin; assay: Fibronectin secretion, lung carcinoma cells (H460); type: cell-based, human; conditions: Lung H460; concentration 10 (label suffix)
Protocol: as §1

[5] = test system: Fibronectin; assay: Fibronectin secretion, bladder carcinoma cells (HTB-9); type: cell-based, human; conditions: Bladder HTB-9; 10 ug/ml (table: label suffix -10)
Protocol: as §1

[6] = test system: Fibronectin; assay: Fibronectin secretion, liver HepG2 cells; type: cell-based, human; conditions: 10 ug/ml (table: label suffix -10)
Protocol: as §1

[7] = test system: Fibronectin; assay: Fibronectin secretion, skin SK-MEL-5 cells; type: cell-based, human; conditions: Skin SK-MEL-5; concentration 10 (label suffix)
Protocol: as §1

[8] = test system: cancer cells; assay: Anticancer activity of alkaline-hydrolysed saponins (cells not stated); type: cell-based; conditions: after removal of acyl groups by alkaline hydrolysis
[9] = concentration 10 (label suffix; text uses ug/ml)

For `C/C=C(/C)C(=O)O[C@H]1[C@H](OC(=O)/C(C)=C/C)[C@@]2(CO)C(CC1(C)C)C1=CCC3[C@@]4(C)CC[C@H](O[C@@H]5OC(C(=O)O)[C@@H](O)C(O[C@@H]6OC[C@@H](O)C(O)C6O)C5O[C@@H]5OC(CO)[C@H](O)C(O)C5O)C(C)(C)C4CC[C@@]3(C)[C@]1(C)C[C@H]2O` (stereo partly drawn) [Z12, 3-O-[β-D-galactopyranosyl(1→2)]-β-D-xylopyranosyl(1→3)-β-D-glucuronopyranosyl-21-O-angeloyl, 22-O-tigloyl-3β, 16α, 21β, 22α, 28-pentahydroxyolean-12-ene], the “IC50, cytotoxic to Leishmania Major (promastigotes)” value (“IC50, cytotoxic to Leishmania Major” for short) ([1]; MTT assay, promastigotes) was 23 µg/mL (≈ 20.4 µM).
For `C/C=C(/C)C(=O)O[C@H]1[C@H](O)[C@@]2(COC(=O)C(C)CC)C(CC1(C)C)C1=CCC3[C@@]4(C)CC[C@H](O[C@@H]5OC(C(=O)O)[C@@H](O)C(O[C@@H]6O[C@@H](CO)C(O)C6O)C5O[C@@H]5OC(CO)[C@H](O)C(O)C5O)C(C)(C)C4CC[C@@]3(C)[C@]1(C)[C@@H](O)[C@H]2O` (stereo partly drawn) [Y7, 3-O-[β-D-galactopyranosyl-(1→2)]-α-L-arabinofuranosyl-(1→3)-β-D-glucuronopyranosyl-21-O-angeloyl-28-O-2-methylbutanoyl-3β, 15α, 16α, 21β, 22α, 28-hexahydroxyolean-12-ene], the “IC50, cytotoxic to Leishmania Major” value ([1]; MTT assay, promastigotes) was 18 µg/mL (≈ 15.7 µM) and the “% inhibition of Fibronectin secretion” value [2, 9] was 34%.
For `C/C=C(/C)C(=O)O[C@H]1[C@H](OC(C)=O)C(C)(C)CC2C3=CCC4[C@@]5(C)CC[C@H](O[C@@H]6OC(C(=O)OCCCC)[C@@H](O)C(O[C@@H]7O[C@@H](CO)C(O)C7O)C6O[C@@H]6OC(CO)[C@H](O)C(O)C6O)C(C)(C)C5CC[C@@]4(C)[C@]3(C)C[C@@H](O)[C@]21CO` (stereo partly drawn) [X, 3-O-{[β-D-galactopyranosyl(1→2)]-[α-L-arabinofuranosyl(1→3)]-β-D-glucuronopyranosidebutyl ester}-21-O-acetyl-22-O-angeloyl-3β,16α, 21β,22α, 28-pentahydroxyolean-12-ene], the “% inhibition of Fibronectin secretion” value [2, 9] was 39%.
In the case of `C/C=C(/C)C(=O)O[C@H]1[C@H](OC(=O)/C(C)=C\C)[C@@]2(CO)C(CC1(C)C)C1=CCC3[C@@]4(C)CC[C@H](O[C@@H]5OC(C(=O)O)[C@@H](O)C(O[C@@H]6OC[C@@H](O)C(O)C6O)C5O[C@@H]5OC(CO)[C@H](O)C(O)C5O)C(C)(C)C4CC[C@@]3(C)[C@]1(C)C[C@H]2O` (stereo partly drawn) [Ba1, 3-O-[β-D-galactopyranosyl(1→2)]-β-D-xylopyranosyl(1→3)-β-D-glucuronopyranosyl-21-O-angeloyl, 22-O-angeloyl-3β, 15α, 21β, 22α, 28-pentahydroxyolean-12-ene], the “IC50, cytotoxic to Leishmania Major” value ([1]; MTT assay, promastigotes) is reported as 15 µg/mL (≈ 13.3 µM), the “% inhibition of Fibronectin secretion” value [2, 9] is reported as 30% and the “% inhibition of Fibronectin secretion” value [3] is reported as 26%. The “% inhibition of Fibronectin secretion” value [4] was 19%, the “% inhibition of Fibronectin secretion” value [5] was 25% and the “% inhibition of Fibronectin secretion” value [6] was 33%. For the same compound, the “% inhibition of Fibronectin secretion” value [7] was 10%.
`C/C=C(/C)C(=O)O[C@@H]1C(O)[C@H](O[C@H]2[C@H](OC(C)=O)[C@@]3(CO)C(CC2(C)C)C2=CCC4[C@@]5(C)CC[C@H](O[C@@H]6OC(C(=O)O)[C@@H](O)[C@@H](O[C@@H]7O[C@@H](CO)[C@@H](O)C7O)C6O[C@@H]6OC(CO)[C@H](O)[C@@H](O)C6O)C(C)(C)C5CC[C@@]4(C)[C@]2(C)C[C@H]3O)OC(C)[C@@H]1OC(=O)/C(C)=C\C` (stereo partly drawn) [Y1, 3-O-[β-D-galactopyranosyl (1→2)]-α-L-arabinofuranosyl(1→3)-β-D-glucuronopyranosyl-21-O-(3,4-diangeloyl)-α-L-rhamnophyranosyl-22-O-acetyl-3β,16α, 21β, 22α, 28-pentahydroxyolean-12-ene] gave an IC50 [1] of 23 µg/mL (≈ 17.5 µM).
For `CC1O[C@@H](OC2[C@H](OC3[C@H](O[C@H]4C(O[C@@H]5OC(CO)[C@H](O)[C@@H](O)C5O)[C@H](O[C@H]5CC[C@@]6(C)C(CC[C@]7(C)C6CC[C@]68O[C@H](O)[C@]9(C6CC(C)(C)[C@@H](O)[C@@H]9O)[C@H](O)C[C@]87C)C5(C)C)OC(C(=O)O)[C@H]4O)OC(CO)[C@H](O)[C@H]3O)OC(C)[C@H](O)[C@@H]2O)C(O)[C@@H](O)[C@H]1O` (stereo partly shown) [AKOH-Mb5], the anticancer activity [8] was “lost anticancer activity”, the “cytotoxic to Leishmania Major (promastigotes)” value ([1]; MTT assay, promastigotes) was “not cytotoxic” and the “% inhibition of Fibronectin secretion” value ([2]; concentration 40 (label suffix)) was “No effect”.
In the case of `CC=C(C)C(=O)OC1C(OC(=O)C(C)=CC)C23C(O)CC4(C)C5(C)CCC6C(C)(C)C(OC7OC(C(=O)O)C(O)C(OC8OC(CO)C(O)C(O)C8OC8OC(C)C(O)C(O)C8OC8OC(C)C(O)C(O)C8O)C7OC7OC(CO)C(O)C(O)C7O)CCC6(C)C5CCC4(OC2O)C3CC1(C)C` (stereo not shown) [Mb5], the “IC50, cytotoxic to Leishmania Major” value ([1]; MTT assay, promastigotes) is reported as 15 µg/mL (≈ 10.2 µM), the “% inhibition of Fibronectin secretion” value [2, 9] is reported as 35% and the “% inhibition of Fibronectin secretion” value [3] is reported as 33%. For the same compound, the “% inhibition of Fibronectin secretion” value [4] was 25%, the “% inhibition of Fibronectin secretion” value [5] was 28% and the “% inhibition of Fibronectin secretion” value [6] was 35%. The “% inhibition of Fibronectin secretion” value [7] was 15%.
`CC1(C)CC2C3=CCC4[C@@]5(C)CC[C@H](O[C@@H]6OC(C(=O)O)[C@@H](O)[C@@H](O[C@@H]7O[C@@H](CO)C(O)[C@@H]7O)C6O[C@@H]6OC(CO)[C@H](O)[C@@H](O)C6O)C(C)(C)C5CC[C@@]4(C)[C@]3(C)[C@@H](O)[C@@H](O)[C@@]2(CO)[C@@H](O)[C@@H]1O` (stereo partly shown) [AKOH-Y] was tested, and the anticancer activity [8] was “lost anticancer activity” and the “cytotoxic to Leishmania Major (promastigotes)” value ([1]; MTT assay, promastigotes) was “not cytotoxic”.
For `C/C=C(/C)C(=O)O[C@H]1[C@H](OC(=O)C(C)C)[C@@]2(CO)C(CC1(C)C)C1=CCC3[C@@]4(C)CC[C@H](O[C@@H]5OC(C(=O)O)[C@@H](O)C(O[C@@H]6O[C@@H](CO)C(O)C6O)C5O[C@@H]5OC(CO)[C@H](O)C(O)C5O)C(C)(C)C4CC[C@@]3(C)[C@]1(C)[C@@H](O)[C@H]2O` (stereo partly drawn) [Y0, 3-O-[β-D-galactopyranosyl(1→2)]-α-L-arabinofuranosyl(1→3)-β-D-glucuronopyranosyl-21-O-angeloyl, 22-O-(2-methylpropanoyl)-3β, 15α, 16α, 21β, 22α, 28-hexahydroxyolean-12-ene], the “IC50, cytotoxic to Leishmania Major” value ([1]; MTT assay, promastigotes) was 25 µg/mL (≈ 22.1 µM) and the “% inhibition of Fibronectin secretion” value [2, 9] was 34%.
With `CC=C(C)C(=O)OC1C(OC(=O)c2ccccc2)C(C)(C)CC2C3=CCC4C5(C)CCC(OC6OC(C(=O)OC)C(O)C(OC7OCC(O)C(O)C7O)C6OC6OC(CO)C(O)C(O)C6O)C(C)(C)C5CCC4(C)C3(C)CC(O)C21CO` (stereo not shown) [Ba4] the “% inhibition of Fibronectin secretion” value [2, 9] was 28%, the “% inhibition of Fibronectin secretion” value [3] was 24% and the “% inhibition of Fibronectin secretion” value [4] was 18%. For the same compound, the “% inhibition of Fibronectin secretion” value [5] was 30%, the “% inhibition of Fibronectin secretion” value [6] was 28% and the “% inhibition of Fibronectin secretion” value [7] was 10%.
Compound `C/C=C(/C)C(=O)O[C@H]1[C@H](OC(=O)/C(C)=C\C)[C@@]23C(CC1(C)C)[C@]1(CCC4[C@@]5(C)CC[C@H](O)C(C)(C)C5CC[C@@]4(C)[C@]1(C)C[C@H]2O)O[C@@H]3O` (stereo partly shown) [ACH-Mb5] has an IC50 ([1]; MTT assay, promastigotes) of 18 µg/mL (≈ 26.8 µM).
In the case of `C/C=C(/C)C(=O)O[C@H]1[C@H](OC(=O)/C(C)=C\C)[C@@]2(CO)C(CC1(C)C)C1=CCC3[C@@]4(C)CC[C@H](O[C@@H]5OC(C(=O)O)[C@@H](O)C(O)C5O[C@@H]5OC(CO)[C@H](O)C(O)C5O)C(C)(C)C4CC[C@@]3(C)[C@]1(C)[C@@H](O)[C@H]2O` (stereo partly shown) [Y5], the “IC50, cytotoxic to Leishmania Major” value ([1]; MTT assay, promastigotes) is reported as 16 µg/mL (≈ 15.9 µM).
